For data set [1], the target named is HIV-1 reverse transcriptase (Human immunodeficiency virus type 1 group M subtype B, UniProt P04585). Description: cell-free HIV-1 RT assay with artificial homopolymeric template/primer and [3H]dNTP. Type of data set: biochemical. As for the experimental part:
To prepare the template/primers for the RT experiments, 0.15 mM poly(U), poly(A), and poly(I) were mixed with an equal volume of 0.0375 mM oligo(dA), oligo(dT), and oligo(dC), respectively. The final concentrations of the templates in the RT reaction mixture were 0.015 mM. The reaction mixture (50 μl) contained 50 mM Tris.HCl (pH 7.8), 5 mM dithiothreitol, 300 mM glutathione, 500 μM EDTA, 150 mM KCl, 5 mM MgCl2, 1.25 μg of bovine serum albumin, an appropriate concentration of labeled (tritiated) substrate dTTP, dCTP, or dATP (2 μCi/assay), a fixed concentration of the template/primer poly(A).oligo(dT) (0.015 mM), poly(I).oligo(dC) (0.015 mM), and poly(U).oligo(dA) (0.015 mM), 0.06% Triton X-100, 10 μl of inhibitor solution (containing various concentrations of the compounds), and 1 μl of the RT preparation. The reaction mixtures were incubated at 37° C. for 30 min, at which time 100 μl of yeast RNA (1 mg/ml) and 1 ml of Na4P2O7 (0.02 M) in trichloroacetic acid (5% v/v) were added. The solutions were kept on ice for 30 min, after which the acid-insoluble material was washed and analyzed for radioactivity.

A short description of data set [2]: chemical stability on storage / in solution. Format: physicochemical. Conditions: sample checked after 1 year.
Another data set addresses HIV-RT (Human immunodeficiency virus type 1 group M subtype B, UniProt P04585). As to conditions: cell-free HIV-RT assay, literature, not a direct comparison; cited from earlier work.

Values after ≈ are worked out from the molar mass of the structure shown.

As a reminder, the IC50 is the concentration that gives 50% inhibition. Regarding `Nc1ncnc2c1ncn2[C@@H]1CC[C@H](OC(C(=O)O)P(=O)(O)O)C1` (relative stereo) [Compound 11d, cis-9-{4-[Carboxy(phosphono)methoxy]cyclopentan-1-yl}adenine], the concentration for half-maximal inhibition (IC50) in data set [1] (IC50, HIV-RT catalysed incorporation of [3H]dATP / polyrU.dA, substrate [3H]dATP, template/primer poly rU.oligo dA) was 0.274 µM; in data set [1] (IC50, HIV-RT catalysed incorporation of [3H]dCTP / polyrI.dC, substrate [3H]dCTP, template/primer poly rI.oligo dC), > 560 µM; in data set [1] (IC50, HIV-RT catalysed incorporation of [3H]dTTP / polyrA.dT, substrate [3H]dTTP, template/primer poly rA.oligo dT), ≥ 560 µM. The “inhibition of incorporation of [3H]dATP in poly rU/oligo dA” value in data set [1] ([3H]dATP, poly rU/oligo dA, 11a and 11b at 200 μg/mL) is “potent inhibitor”. Also, the “degradation of stored sample” value in data set [2] is given as ~10%.
With `Cc1cn([C@H]2C[C@H](N=[N+]=[N-])[C@@H](CO)O2)c(=O)[nH]c1=O` [AZT], the “IC50 anti-HIV-RT activity reported by McClure” value on HIV-RT is 0.1 µg/mL (≈ 0.374 µM).
